Experimental data reported in BindingDB's records for doi:10.1016/j.bmcl.2010.06.050 (Universit&#224, 2010).

How the values were obtained:
[1] = target: Monoglyceride lipase MGLL (Mus musculus) (UniProt O35678); assay: Inhibition of mouse brain MAGL
[2] = target: T1, Fatty-acid amide hydrolase 1 (Mus musculus, UniProt O08914); assay: Inhibition of mouse brain FAAH assessed as conversion of [3H-ethanolamine]AEA to [3H]ethanolamine by scintillation counting
T1 sequence (O08914 whole entry): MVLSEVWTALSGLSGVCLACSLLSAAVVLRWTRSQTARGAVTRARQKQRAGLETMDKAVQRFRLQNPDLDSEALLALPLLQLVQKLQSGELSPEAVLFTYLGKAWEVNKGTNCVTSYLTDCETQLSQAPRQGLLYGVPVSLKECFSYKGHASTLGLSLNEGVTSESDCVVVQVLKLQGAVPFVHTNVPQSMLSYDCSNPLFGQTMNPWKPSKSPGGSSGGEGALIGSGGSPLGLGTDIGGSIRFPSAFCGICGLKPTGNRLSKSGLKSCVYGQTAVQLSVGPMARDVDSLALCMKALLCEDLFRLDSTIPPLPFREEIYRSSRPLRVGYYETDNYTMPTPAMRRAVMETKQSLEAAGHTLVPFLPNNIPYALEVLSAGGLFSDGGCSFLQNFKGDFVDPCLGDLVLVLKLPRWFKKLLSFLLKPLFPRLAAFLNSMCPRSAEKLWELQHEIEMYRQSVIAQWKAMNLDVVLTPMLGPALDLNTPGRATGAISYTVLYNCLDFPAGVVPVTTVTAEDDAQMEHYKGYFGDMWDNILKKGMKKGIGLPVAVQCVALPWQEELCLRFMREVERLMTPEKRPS

Sequence of Monoglyceride lipase MGLL (Mus musculus) (O35678 whole entry, looked up): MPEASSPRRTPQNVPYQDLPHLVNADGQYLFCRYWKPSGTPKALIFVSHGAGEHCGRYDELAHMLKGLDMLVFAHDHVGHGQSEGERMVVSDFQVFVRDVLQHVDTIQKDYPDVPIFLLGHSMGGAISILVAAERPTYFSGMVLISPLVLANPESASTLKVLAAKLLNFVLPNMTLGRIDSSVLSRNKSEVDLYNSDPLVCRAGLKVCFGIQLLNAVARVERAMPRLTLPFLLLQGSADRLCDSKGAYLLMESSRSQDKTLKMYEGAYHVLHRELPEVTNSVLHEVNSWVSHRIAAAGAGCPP

| Structure (SMILES) | IC50 [1] | IC50 [2] |
| --- | --- | --- |
| CC(=NOC(=O)Nc1ccccc1)c1cccc(-c2cccs2)c1 [1-(3-Thiophen-2-yl-phenyl)-ethanone, O-(phenylaminocarbonyl)oxime] | > 10 µM | – |
| O=C(Nc1ccccc1)ON=C1CCC(c2ccccc2)CC1 (configuration not stated) [4-Phenyl-cyclohexanone, O-(phenylaminocarbonyl)oxime] | – | > 50 µM |
